Reference: PubChem BioAssay (NCI)
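The compound was tested at five concentrations on cells cultured in 96-well plates, with a 48-hour exposure period. Abbreviation: GI50, concentration required for 50% inhibition of growth. TGI: concentration producing complete growth inhibition.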

The compounds below were run on MDA-MB-468 breast (assay: growth of human tumour cells (NCI), 48 h).

Compared with `CCOC(=O)[C@@H](C)C[C@H](Cc1ccccc1)NC(=O)c1csc([C@@H](C[C@H](C(C)C)N(C)C(=O)[C@@H](NC(=O)[C@H]2CCCCN2C)C(C)(C)CC)OC(C)=O)n1`, `CO[C@H]1C[C@@H]2CC[C@@H](C)[C@@](O)(O2)C(=O)C(=O)N2CCCC[C@H]2C(=O)O[C@H]([C@H](C)C[C@@H]2CC[C@@H](OC(=O)C(C)(CO)CO)[C@H](OC)C2)CC(=O)[C@H](C)/C=C(\C)[C@@H](O)[C@@H](OC)C(=O)[C@H](C)C[C@H](C)\C=C/C=C/C=C/1C` is higher in GI50: < 0.00167 µM for the first, 0.00189 µM for the second.

Going from `COc1ccc2c(c1)OC(N)=C(C#N)C2c1cc(OC)c(OC)c(OC)c1` (stereo not given) to `COc1cc2c(c(OC)c1OC)-c1ccc(SC)c(=O)cc1[C@@H](N)CC2`, the GI50 rises from 0.0239 µM to 0.0786 µM (3.3-fold).

First: CC(C)=CCc1cc2c(cc1O)C1=C(C(=O)C3=C(C1=O)S(=O)(=O)CCN3)C(C=C(C)C)O2 (stereo not given)
Second: COc1cnc2c(c1)C(=O)c1c-2n(CCCNC2=NCCS2)c(=O)c2cc(F)ccc12
The GI50 of the first is 2.8-fold higher: 0.54 µM for the first, 0.19 µM for the second.

Compared with `Clc1nccc2c(-c3csc(-c4c[nH]c5ccc(Br)cc45)n3)c[nH]c12`, `O=C1Nc2ccc(Br)cc2C12CC(c1ccccc1)=NN2` (stereo not given) is 2.6-fold higher in GI50: 1.18 µM for the first, 3.04 µM for the second.

Going from `O=C1Nc2ccc(Cl)cc2/C1=C\c1c(-c2ccc(Cl)cc2)nc2sc(C3CC3)nn12` to `COc1cc(/C=C2\C(=O)N(Cc3ccc(Cl)cc3)c3ccccc32)cc(OC)c1OC`, the GI50 falls from 6.68 µM to 2.66 µM (2.5-fold).

First: O=C1NC(=NCCc2ccc(F)cc2)S/C1=C\c1ccc2ncccc2c1
Second: O=C1NC(=NCc2ccccc2Cl)S/C1=C\c1ccc2ncccc2c1
The GI50 of the first is higher: > 20.9 µM for the first, 3.61 µM for the second.

Going from `O=C1NC(=S)S/C1=C\c1cn(-c2ccccc2)nc1-c1ccccc1` to `NCCN1CCN(c2nc(-c3ccccc3)nc3nc(-c4ccccc4)oc23)CC1`, the GI50 falls from 6.83 µM to 1.63 µM (4.2-fold).

Compared with `CCOCC1(COCC)CCC(c2[nH]ncc2CN(C)CCNC)CC1`, `COc1ccc2nc3cc(Cl)ccc3c(NCCCNCCO)c2c1` is 100-fold lower in GI50: 46.6 µM for the first, 0.454 µM for the second.

Compared with `C#Cc1cccc(Nc2ncnc3cc(NC(=O)CCl)ccc23)c1`, `COc1ccc(C(O)c2cc3c(N)c(C(=O)Nc4ccc(Cl)cc4)sc3nc2C)cc1` (stereo not given) is 2.7-fold higher in GI50: 0.716 µM for the first, 1.94 µM for the second.

Going from `O=C(Nc1ccc(Oc2ccc(F)cc2)cc1)[C@@H]1C[C@@H](Cc2ccc(F)cc2)CN1C(=O)Cn1ccnn1` to `CN=C(N)c1ccc(N=C(N)c2ccc(-c3ccc(C(N)=Nc4ccc(C(N)=NC)cc4)cc3)cc2)cc1`, the GI50 rises from 4.5 µM to 74.4 µM (17-fold).

First: COc1cc(/C=C/C(=O)c2cccc(-n3cc(-c4cc(OC)c(OC)c(OC)c4)[nH]c3=O)c2)cc(OC)c1OC
Second: O=C1/C(=C/c2ccc(Cl)c(Cl)c2)CN(C(=O)C(Cl)Cl)C/C1=C\c1ccc(Cl)c(Cl)c1
The GI50 of the first is 8.9-fold higher: 1.57 µM for the first, 0.177 µM for the second.

For `CC1CC2C3CCC4=CC(=O)C=CC4(C)C3(F)C(O)CC2(C)C1(O)C(=O)COP(=O)(O)O` (stereo not given), the GI50 was > 500 µM.

Going from `COc1ccc2c(c1)OC(N)=C(C#N)C2c1cc(OC)c(OC)c(OC)c1` (stereo not given) to `COc1cc2c(c(OC)c1OC)-c1ccc(SC)c(=O)cc1[C@@H](N)CC2`, the TGI rises from 0.0688 µM to > 100 µM.

`CC(C)=CCc1cc2c(cc1O)C1=C(C(=O)C3=C(C1=O)S(=O)(=O)CCN3)C(C=C(C)C)O2` (stereo not given) and `COc1cnc2c(c1)C(=O)c1c-2n(CCCNC2=NCCS2)c(=O)c2cc(F)ccc12` are within 1.5-fold of each other in TGI: 2.59 µM for the first, 2.02 µM for the second.

Going from `Clc1nccc2c(-c3csc(-c4c[nH]c5ccc(Br)cc45)n3)c[nH]c12` to `O=C1Nc2ccc(Br)cc2C12CC(c1ccccc1)=NN2` (stereo not given), the TGI rises from 3.81 µM to 41.8 µM (11-fold).

Compared with `O=C1Nc2ccc(Cl)cc2/C1=C\c1c(-c2ccc(Cl)cc2)nc2sc(C3CC3)nn12`, `COc1cc(/C=C2\C(=O)N(Cc3ccc(Cl)cc3)c3ccccc32)cc(OC)c1OC` is 2.6-fold lower in TGI: 21.2 µM for the first, 8.06 µM for the second.

`O=C1NC(=NCCc2ccc(F)cc2)S/C1=C\c1ccc2ncccc2c1` and `O=C1NC(=NCc2ccccc2Cl)S/C1=C\c1ccc2ncccc2c1` cannot be ordered by TGI: > 25 µM for the first, > 25 µM for the second.

Compared with `O=C1NC(=S)S/C1=C\c1cn(-c2ccccc2)nc1-c1ccccc1`, `NCCN1CCN(c2nc(-c3ccccc3)nc3nc(-c4ccccc4)oc23)CC1` is 12-fold lower in TGI: 39.9 µM for the first, 3.2 µM for the second.

First: CCOCC1(COCC)CCC(c2[nH]ncc2CN(C)CCNC)CC1
Second: COc1ccc2nc3cc(Cl)ccc3c(NCCCNCCO)c2c1
The TGI of the first is higher: > 100 µM for the first, 1.89 µM for the second.

Going from `C#Cc1cccc(Nc2ncnc3cc(NC(=O)CCl)ccc23)c1` to `COc1ccc(C(O)c2cc3c(N)c(C(=O)Nc4ccc(Cl)cc4)sc3nc2C)cc1` (stereo not given), the TGI rises from 3.16 µM to 8.87 µM (2.8-fold).

Compared with `O=C(Nc1ccc(Oc2ccc(F)cc2)cc1)[C@@H]1C[C@@H](Cc2ccc(F)cc2)CN1C(=O)Cn1ccnn1`, `CN=C(N)c1ccc(N=C(N)c2ccc(-c3ccc(C(N)=Nc4ccc(C(N)=NC)cc4)cc3)cc2)cc1` is higher in TGI: 29 µM for the first, > 100 µM for the second.

First: COc1cc(/C=C/C(=O)c2cccc(-n3cc(-c4cc(OC)c(OC)c(OC)c4)[nH]c3=O)c2)cc(OC)c1OC
Second: O=C1/C(=C/c2ccc(Cl)c(Cl)c2)CN(C(=O)C(Cl)Cl)C/C1=C\c1ccc(Cl)c(Cl)c1
The TGI of the first is 8.2-fold higher: 3.25 µM for the first, 0.398 µM for the second.

`CO[C@H]1C[C@@H]2CC[C@@H](C)[C@@](O)(O2)C(=O)C(=O)N2CCCC[C@H]2C(=O)O[C@H]([C@H](C)C[C@@H]2CC[C@@H](OC(=O)C(C)(CO)CO)[C@H](OC)C2)CC(=O)[C@H](C)/C=C(\C)[C@@H](O)[C@@H](OC)C(=O)[C@H](C)C[C@H](C)\C=C/C=C/C=C/1C` and `CC1CC2C3CCC4=CC(=O)C=CC4(C)C3(F)C(O)CC2(C)C1(O)C(=O)COP(=O)(O)O` (stereo not given) cannot be ordered by TGI: > 10 µM for the first, > 500 µM for the second.
